Measured values as given in PubChem BioAssay (NCI).
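How tested: cells in 96-well plates exposed to compound for 48 hours at five concentrations. Definition used: TGI = concentration required for complete inhibition of growth.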

Assays:
Test in all cases: NCI tumour cell line growth inhibition, 48 h
[1] = tested on: KM12 colon
[2] = tested on: OVCAR-5 ovarian
[3] = tested on: SR leukemia
[4] = tested on: EKVX NSCLC
[5] = tested on: MOLT-4 leukemia
[6] = tested on: SW-620 colon
[7] = tested on: NCI-H460 lung
[8] = tested on: SNB-78 CNS
[9] = tested on: U251 CNS
[10] = tested on: HOP-62 NSCLC
[11] = tested on: LXFL 529 NSCLC
[12] = tested on: OVCAR-4 ovarian
[13] = tested on: K-562 leukemia
[14] = tested on: HOP-92 NSCLC
[15] = tested on: HCT-15 colon
[16] = tested on: ACHN renal
[17] = tested on: IGROV1 ovarian
[18] = tested on: HT29 colon
[19] = tested on: UO-31 renal
[20] = tested on: SF-268 CNS
[21] = tested on: XF 498 CNS
[22] = tested on: SK-MEL-28 melanoma
[23] = tested on: SK-OV-3 ovarian
[24] = tested on: NCI-H522 lung
[25] = tested on: HCT-116 colon
[26] = tested on: UACC-62 melanoma
[27] = tested on: SF-295 CNS
[28] = tested on: 786-0 renal
[29] = tested on: DLD-1 colon
[30] = tested on: SNB-19 CNS
[31] = tested on: A549 NSCLC
[32] = tested on: RPMI-8226 leukemia
[33] = tested on: NCI-H226 lung
[34] = tested on: DMS 114 small cell lung
[35] = tested on: SK-MEL-2 melanoma
[36] = tested on: UACC-257 melanoma
[37] = tested on: M14 melanoma
[38] = tested on: NCI-H23 lung
[39] = tested on: CAKI-1 renal
[40] = tested on: M19-MEL melanoma
[41] = tested on: OVCAR-3 ovarian
[42] = tested on: TK-10 renal
[43] = tested on: SK-MEL-5 melanoma
[44] = tested on: RXF 393 renal
[45] = tested on: HL-60(TB) leukemia
[46] = tested on: CCRF-CEM leukemia
[47] = tested on: SF-539 CNS
[48] = tested on: LOX IMVI melanoma
[49] = tested on: SN12C renal
[50] = tested on: MALME-3M melanoma
[51] = tested on: HCC-2998 colon
[52] = tested on: OVCAR-8 ovarian
[53] = tested on: HOP-18 NSCLC
[54] = tested on: SNB-75 CNS
[55] = tested on: COLO 205 colon
[56] = tested on: KM20L2 colon
[57] = tested on: DMS 273 small cell lung
[58] = tested on: A498 renal

Structure (SMILES): COc1ccc(C(=O)C(c2ccc(OC)cc2)C2OC(=O)C(Cl)=C2Cl)cc1 (configuration not stated)
- TGI [1]: > 100 µM
- TGI [2]: > 100 µM
- TGI [3]: > 100 µM
- TGI [4]: > 100 µM
- TGI [5]: > 100 µM
- TGI [6]: > 100 µM
- TGI [7]: > 100 µM
- TGI [8]: > 100 µM
- TGI [9]: > 100 µM
- TGI [10]: > 100 µM
- TGI [11]: > 100 µM
- TGI [12]: > 100 µM
- TGI [13]: > 100 µM
- TGI [14]: > 100 µM
- TGI [15]: > 100 µM
- TGI [16]: > 100 µM
- TGI [17]: > 100 µM
- TGI [18]: > 100 µM
- TGI [19]: > 100 µM
- TGI [20]: > 100 µM
- TGI [21]: > 100 µM
- TGI [22]: > 100 µM
- TGI [23]: > 100 µM
- TGI [24]: > 100 µM
- TGI [25]: > 100 µM
- TGI [26]: > 100 µM
- TGI [27]: > 100 µM
- TGI [28]: > 100 µM
- TGI [29]: > 100 µM
- TGI [30]: > 100 µM
- TGI [31]: > 100 µM
- TGI [32]: > 100 µM
- TGI [33]: > 100 µM
- TGI [34]: > 100 µM
- TGI [35]: > 100 µM
- TGI [36]: > 100 µM
- TGI [37]: > 100 µM
- TGI [38]: > 100 µM
- TGI [39]: > 100 µM
- TGI [40]: > 100 µM
- TGI [41]: > 100 µM
- TGI [42]: > 100 µM
- TGI [43]: > 100 µM
- TGI [44]: > 100 µM
- TGI [45]: > 100 µM
- TGI [46]: > 100 µM
- TGI [47]: > 100 µM
- TGI [48]: > 100 µM
- TGI [49]: > 100 µM
- TGI [50]: > 100 µM
- TGI [51]: > 100 µM
- TGI [52]: > 100 µM
- TGI [53]: > 100 µM

Structure (SMILES): CCNc1nnc(-c2nsc3ccccc23)s1
- TGI [1]: > 100 µM
- TGI [2]: > 100 µM
- TGI [3]: > 100 µM
- TGI [54]: 36.1 µM
- TGI [4]: > 100 µM
- TGI [5]: > 100 µM
- TGI [6]: > 100 µM
- TGI [7]: 88.6 µM
- TGI [8]: > 100 µM
- TGI [55]: > 100 µM
- TGI [9]: > 100 µM
- TGI [10]: > 100 µM
- TGI [11]: > 100 µM
- TGI [12]: > 100 µM
- TGI [13]: > 100 µM
- TGI [14]: > 100 µM
- TGI [15]: > 100 µM
- TGI [16]: > 100 µM
- TGI [17]: > 100 µM
- TGI [18]: 93.3 µM
- TGI [19]: > 100 µM
- TGI [20]: 80.9 µM
- TGI [22]: > 100 µM
- TGI [25]: 75.2 µM
- TGI [26]: > 100 µM
- TGI [30]: 45.6 µM
- TGI [31]: > 100 µM
- TGI [32]: > 100 µM
- TGI [35]: > 100 µM
- TGI [36]: > 100 µM
- TGI [37]: > 100 µM
- TGI [38]: > 100 µM
- TGI [56]: > 100 µM
- TGI [57]: > 100 µM
- TGI [40]: > 100 µM
- TGI [41]: 57.6 µM
- TGI [42]: > 100 µM
- TGI [43]: > 100 µM
- TGI [44]: > 100 µM
- TGI [45]: > 100 µM
- TGI [46]: > 100 µM
- TGI [47]: > 100 µM
- TGI [48]: > 100 µM
- TGI [49]: > 100 µM
- TGI [51]: > 100 µM
- TGI [52]: > 100 µM
- TGI [53]: 91.6 µM

Structure (SMILES): O=C(Cc1csc(-c2nc(CC(=O)NNc3ccccc3)cs2)n1)NNc1ccccc1
- TGI [1]: > 100 µM
- TGI [2]: > 100 µM
- TGI [3]: 53.6 µM
- TGI [54]: > 100 µM
- TGI [4]: > 100 µM
- TGI [5]: > 100 µM
- TGI [7]: 60.4 µM
- TGI [8]: > 100 µM
- TGI [55]: 64 µM
- TGI [9]: > 100 µM
- TGI [10]: > 100 µM
- TGI [11]: > 100 µM
- TGI [12]: > 100 µM
- TGI [13]: > 100 µM
- TGI [14]: > 100 µM
- TGI [15]: > 100 µM
- TGI [16]: > 100 µM
- TGI [17]: > 100 µM
- TGI [18]: > 100 µM
- TGI [19]: > 100 µM
- TGI [20]: > 100 µM
- TGI [21]: > 100 µM
- TGI [22]: > 100 µM
- TGI [23]: > 100 µM
- TGI [24]: 43.5 µM
- TGI [25]: > 100 µM
- TGI [26]: > 100 µM
- TGI [27]: > 100 µM
- TGI [28]: > 100 µM
- TGI [29]: > 100 µM
- TGI [30]: > 100 µM
- TGI [31]: > 100 µM
- TGI [32]: > 100 µM
- TGI [33]: > 100 µM
- TGI [34]: 45.1 µM
- TGI [35]: > 100 µM
- TGI [36]: > 100 µM
- TGI [37]: > 100 µM
- TGI [38]: > 100 µM
- TGI [56]: > 100 µM
- TGI [39]: > 100 µM
- TGI [57]: 34.2 µM
- TGI [40]: > 100 µM
- TGI [41]: > 100 µM
- TGI [42]: > 100 µM
- TGI [58]: > 100 µM
- TGI [43]: > 100 µM
- TGI [44]: > 100 µM
- TGI [45]: > 100 µM
- TGI [46]: > 100 µM
- TGI [47]: > 100 µM
- TGI [48]: 43.7 µM
- TGI [49]: > 100 µM
- TGI [50]: > 100 µM
- TGI [51]: > 100 µM
- TGI [52]: > 100 µM
- TGI [53]: > 100 µM
